Laboratory results from patent publication US20250000874A1, “BACTERIAL METABOLITES AND THEIR USE IN REDUCING INFLAMMATION” (LOYOLA UNIVERSITY OF CHICAGO, priority 2023, published 2025).
Entries after “also recorded” stand apart in the source; their conditions may differ.

Key:
[1] = system: IC-21 murine peritoneal macrophages; assay: Toxicity assay, Cell Counting Kit-8 viability; type: cell-based, mouse; details: 37° C. two days, CCK-8
Method: FIG. 10. […] IC-21 murine peritoneal macrophages were seeded at a density of 2.0×10^4 per well in a 96-well plate. Differing concentrations of compound JE ranging from […] were diluted in DMSO and added to the appropriate wells. Cells were incubated at 37° C. for 48 hours. After the incubation period, Cell Counting Kit-8 (Sigma-Aldrich) was used for quantification of viable cells. CCK-8 solution was added to each well and the plate was incubated at 37° C. for two hours. Levels of water-soluble tetrazolium salt reduced to formazan were then measured at a wavelength of 450 nm. Cell viability was found as a percentage by dividing each absorbance value by the negative control.
To test if JE has any toxicity, we first incubated murine macrophages with JE at different concentrations at 37° C. for two days, and determined viability of the cells. […] Further we injected the JE at 50 μM twice daily via I.P. for 3 or 5 days and then determined ALT levels in sera and examined the morphology in key organs, liver, kidney, spleen, intestines etc.

macrophages = assay: NC on other TLR pathways, macrophages (Example 7); type: cell-based; details: PAM3CSK4, Flagellin, Imiquimod, ODN2006; various concentrations
Method: Once ready, macrophages were then incubated with NC at a concentration of 50 uM overnight. The following day they were treated with P(I:C) at 50 ug/mL, 100 ug/mL, or 200 ug/mL, with LPS at 1 ng/ml or 10 ng/ml, or FSL at a concentration of 20 ng/ml or 50 ng/mL. Samples were treated for 4 hours and then Supernatant was then collected and the concentration of TNFα was then determined via the commercially available ELISA MAX Deluxe kit (Biolegend), with measurements reported in pg/mL.
Further investigation of NC's impact on TLR signaling involved treating BMDMs with the TLR 4 agonist LPS. Following overnight treatment with NC cells were treated with LPS at a concentration of 1 ng/ml and 10 ng/ml. After 4 hours supernatant was collected and concentration of TNFα was measured via ELISA. […] Additionally, we explored NCs effects on other TLR agonists. […] We investigated NCs effects on various other TLR pathways including: ½ (PAM3CSK4), TLR 5 (Flagellin), TLR 7 (Imiquimod), and TLR 9 (ODN2006).

[2] = system: phosphorylated NFκB (ser536); assay: NC on phospho-NFκB (ser536) levels in stimulated Raw 264.7 macrophages; type: cell-based, mouse
Method: FIG. 31. Compound NC on phospho-NFκB (ser536) levels in stimulated macrophages. Raw 264.7 macrophages were incubated with 50 μM of NC for 18 hours prior to stimulation with LPS or Poly I:C. Whole cell lysates were collected after 2 hours and the level of phosphorylated NFκB (Phosphoserine 536) was quantified for endpoint absorbance at […] and normalized to absorbance of untreated, unstimulated cells. Mean and p values were computed using R base and dplyr packages using normalized values.
TRIF can participate in TNFα signaling through two distinct mechanisms. Firstly, TRIF can signal NFκB through TRAF6 to increase TNFα transcription. Secondly, TRIF activation can enhance the translation of TNFα mRNA through prolonged MK-2 activation. To determine whether NC reduces TNFα release by blocking TNFα transcription or translation, we collected cell lysates and quantified the levels of phosphorylated NFκB (ser536). Lysates of Raw 264.7 cells treated with NC prior to stimulation with LPS or Poly I:C contained more phosphorylated NFκB (ser536) than untreated cells (FIG. 31). There was no difference in phosphorylated NFκB (ser536) in unstimulated cells treated with NC.

[3] = system: human corneal epithelial cells (HCECs); assay: MQ on IL-6 production in HCECs in response to TLR agonists; type: cell-based; details: for production and secretion of IL6: MQ 50 μM overnight
Method: FIG. 26. MQ Reduces IL-6 Response to Toll 3 and Toll 5 Agonist. HCECs were cultured at a uniform density and allowed to adhere. Cells were then incubated overnight in MQ at a concentration of […] at 37° C. The following day, the HCECs were stimulated with FLA at a concentration of 100 ng/ml or P (I:C) at 500 μg/mL for four hours. Supernatants were collected and IL-6 concentrations were determined via ELISA.
To investigate the effects of MQ on cytokine activity, human corneal epithelial cells (HCECs) were stimulated with various TLR agonists and the production of cytokines was measured via ELISA. HCECs were seeded at a density of 2×10^5 cells/well and were treated overnight with MQ at a concentration of 50 μM and the following day they were stimulated with Flagellin (FLA) at 100 ng/ml or Poly (I:C) at a concentration of 500 μg/ml. After 4 hours, supernatant was collected and the concentration of IL-6 was determined via ELISA.
The effects of MQ on various other TLR pathways including: TLR 1/2 (PAM3CSK4), TLR 2/6 (FSL) TLR 4 (Lipopolysaccharide), TLR 7 (Imiquimod), and TLR 9 (ODN2006) was also investigated.

CC(=O)O[C@@H]1CC[C@H]2[C@H]3CC[C@H]4CC(F)(F)CC[C@]4(C)[C@H]3CC[C@]12C [JE, 3,3-Difluoro-5-alpha-androstan-17-beta-yl acetate]
viability of the cells ([1]; JE 50 μM or below): high viability; also recorded: did not show significant reduction
viability of the cells ([1]; JE >100 μM): reduced the viability

CCCCCCCCCCCCCCCC(=O)N[C@@H](C(=O)O)[C@H](C)O [NC, N-Palmitoyl-D-Threonine]
cytokine production, other TLR pathways (macrophages): did not exhibit any significant inhibitory effects
phosphorylated NFκB (ser536) level ([2]; 50 μM NC 18 hours, LPS, lysates after 2 hours): more and significantly decreases
phosphorylated NFκB (ser536) level ([2]; 50 μM NC 18 hours, Poly I:C, lysates after 2 hours): more and significantly decreases
phosphorylated NFκB (ser536) level ([2]; NC, unstimulated cells): no difference

Prednicarbate [MQ]
production and secretion of IL6 ([3]; Flagellin (FLA) 100 ng/ml 4 hours): reduced
production and secretion of IL6 ([3]; Poly (I:C) 500 μg/ml 4 hours): reduced
production of IL-6 ([3]; MQ alone, 50 μM overnight, no TLR agonist): not found to increase
cytokine production, other TLR pathways ([3]; PAM3CSK4, FSL, Lipopolysaccharide, Imiquimod, ODN2006, various concentrations): did not exhibit any significant inhibitory effects
